{
  "source": "patent US10004826B2",
  "about": "“Implantable human liver tissue constructs and uses thereof” (Massachusetts Institute of Technology, priority 2010, dated 2018)",
  "key": {"human CYP2D6": {"test_system": "human CYP2D6", "assay": "Debrisoquine metabolism and pharmacokinetics in humanized C57/BL6 mice", "conditions": "debrisoquine 2 mg/kg oral gavage", "quoted_text": "Humanized mice established on a C57/Bl6 mouse background were administered debrisoquine at 2 mg/kg by oral gavage. Following drug administration, mice were bled by retro-orbital draw at specific timepoints, and drug concentration quantified by LC/MS/MS. […] Error bars are SEM for n=3 mice per group.\n(§2) Mice administered 80 mg/kg of coumarin injected i.p. or 2 mg/kg debrisoquine (DB) gavaged p.o were subjected to retro-orbital draw at 5, 10 15, 30, 60, 90, and 120 minutes after drug administration, and terminal urine collection at 4 h. From ˜100 ml blood collections, serum was separated by centrifugation at 1200 g for 10 minutes and stored at −20° C. […] The area under the curve from time 0 until the time of the last measurable plasma concentration (AUC0-t) was calculated using the linear trapezoidal. Peak concentration (Cmax) and time to reach maximum concentration (tmax) values were obtained directly from the plasma concentration-time profile. Metabolic ratios were determined by dividing the AUC0-t of metabolite by the AUC0-t of the parent drug.\n(§3) Following coumarin or debrisoquine exposure, serum or urine was sampled for quantitation of drug parent and metabolite concentrations by liquid chromatography (LC)/MS/MS."}, "human CYP2A6": {"target": "T1, human CYP2A6 (Homo sapiens, UniProt P11509)", "T1 sequence (P11509 1-494)": "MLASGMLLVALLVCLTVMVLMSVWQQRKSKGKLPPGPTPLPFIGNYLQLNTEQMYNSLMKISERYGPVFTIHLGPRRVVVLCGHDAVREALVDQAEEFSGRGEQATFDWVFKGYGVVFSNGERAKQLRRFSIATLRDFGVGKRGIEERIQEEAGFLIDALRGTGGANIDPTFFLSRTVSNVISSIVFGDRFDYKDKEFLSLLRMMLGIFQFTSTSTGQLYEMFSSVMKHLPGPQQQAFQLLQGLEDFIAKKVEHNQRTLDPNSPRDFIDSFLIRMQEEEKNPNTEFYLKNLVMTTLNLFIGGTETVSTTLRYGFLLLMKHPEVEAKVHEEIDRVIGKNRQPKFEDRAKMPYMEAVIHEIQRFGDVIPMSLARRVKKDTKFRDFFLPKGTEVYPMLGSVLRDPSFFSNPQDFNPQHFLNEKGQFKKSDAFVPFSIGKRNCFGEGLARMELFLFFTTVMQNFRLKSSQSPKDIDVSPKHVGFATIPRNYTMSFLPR", "conditions": "athymic nude, mouse, in vivo, ip, 80 mg/kg", "quoted_text": "Humanized mice established on a nude mouse background were administered coumarin at 80 mg/kg by intraperitoneal injection. Following drug administration, mice were bled by retro-orbital draw at specific timepoints, and drug concentration quantified by LC/MS/MS. Open circles represent humanized mice, and closed circles represent wild-type (no implant) mice. Error bars are SEM for n=3 mice per group.\nas §2, §3"}, "Mouse livers": {"test_system": "Mouse livers", "conditions": "in vivo", "quoted_text": "Serum samples acquired at 4 h following APAP exposure were assayed for the liver damage marker alanine transaminase (ALT) using an endpoint colorimetric enzymatic assay.\nSerum samples acquired at 4 h following APAP exposure were assayed for the liver damage markers aspartame transaminase (AST) using an endpoint colorimetric enzymatic assay. Shown are individual data points for n=3 mice per group, where black bars represent average values for each group.\nExplanted livers were sectioned and stained with H&E. Shown are representative sections.\nAt day 9 of implantation, mice were fed by oral gavage with 500 ml drinking water or 500 ml acetaminophen (APAP, 250 mg/kg) in water. Mice were fasted for 16 h prior to APAP administration. Following APAP exposure, blood was collected by retro-orbital draw at 4 h. Blood samples were acquired by retro-orbital draw at 4 h following APAP exposure, serum separated, and serum analyzed for enzymatic activity of alanine transaminase (ALT) and aspartame transaminase (AST), non-species specific markers of liver damage (Teco Diagnostics). Engineered liver mimetics and mouse livers were extracted for biochemical and histological analysis. Mouse livers were paraffin-embedded, sectioned with 5 um slices, de-paraffinized and stained for hematoxylin and eosin (H&E)."}, "hepatitis C virus": {"test_system": "hepatitis C virus", "conditions": "uPA+/+/SCID model; cited from earlier work"}, "human liver mimetics": {"test_system": "human liver mimetics", "assay": "Human hepatotoxicity in humanized mice by serum human albumin ELISA", "format": "in vivo, mouse", "conditions": "inducers daily at days 4-7 post-implantation; OME oral gavage, RIF i.p.; blood days 2, 5, 7", "source_text": "Error bars are SEM for n=3 or greater.\nBlood was collected by retro-orbital draw on days 2, 5 and 7 days after implantation for drug-treated mice and control mice with acellular hydrogel intraperitoneal implantations. Red bars mark average human serum albumin levels at each timepoint for n=3-6 mice per condition.\n(§1) Human albumin in serum or media samples was quantified by enzyme-linked immunosorbant assay performed using goat anti-human albumin antibody, horseradish peroxidase detection, and 3,3′,5,5′-tetramethylbenzidine development. Urea was measured by acid- and heat-catalyzed detection of diacetylmonoxime conversion to a colorimetric product. Alanine aminotransfer (ALT) and aspartate aminotransfer (AST) enzymatic levels were detected with clinical kits based on colorimetric endpoint methods."}, "[1]": {"test_system": "luciferase-expressing Plasmodium berghei (Pb-luc)", "conditions": "Huh7.5 and HC04 hepatoma cells in alginate", "protocol": "Primary adult human hepatocytes and J2 stromal fibroblasts were seeded in lyophilized alginate sponges and infected with luciferase-expressing Plasmodium berghei (Pb-luc) three days post-seeding. Bioluminescence imaging was performed two days post-infection (FIG. 11a).\nNext, the response of Pb-luc-infected hepatoma aggregates in alginate to primaquine treatment was tested."}, "[2]": {"test_system": "encapsulated human hepatocytes", "assay": "Albumin secretion and urea synthesis of HEP/FIB encapsulated in peptide-derivatized PEG-DA hydrogel", "format": "cell-based", "conditions": "10 μmol/ml peptide; vs RGES controls; one week in vitro", "protocol": "Liver mimetics were fabricated using a hydrogel polymerization apparatus. In brief, cellular pre-polymer solution was loaded into a 20-mm diameter, […] silicone spacer, and the solution exposed to UV light from a spot curing system with collimating lens (320-390 nm, 10 mW/cm^2, 20-30 s; EXFO Lite). […] Acrylate-PEG-peptide monomers were synthesized by conjugating RGDS or RGES to acrylate-PEG-N-hydroxysuccinimide (3.4 kDa) at a 1:1 molar ratio in 50 mM sodium bicarbonate buffer (pH 8.5). Reactions were dialyzed overnight against […] MWCO cellulose ester membrane and lyophilized for long-term storage at −80° C. Hepatocyte/fibroblast co-cultures were encapsulated at a final concentration of 8×10^6 hepatocytes/ml pre-polymer, in the absence or presence of an additional 6×10^6 liver endothelial cells (LEC)/ml of pre-polymer.\nas §1, with “methods. […]” for “methods.”"}},
  "data": [
    {"compound": "N=C(N)N1Cc2ccccc2C(O)C1", "note": "(centres unmarked) [4-OHDB, 4-hydroxydebrisoquine]", "values": [
      {"measurement": "Metabolic ratio (metabolite exposure over parent drug exposure, AUC), 4-OHDB/debrisoquine", "setting": "human CYP2D6", "value": "> 0.1"}
    ]},
    {"compound": "O=c1ccc2ccc(O)cc2o1", "note": "[7-HC, 7-hydroxycoumarin]", "values": [
      {"measurement": "Metabolic ratio (metabolite exposure over parent drug exposure, AUC), 7-HC/coumarin", "setting": "human CYP2A6", "value": "> 0.1"}
    ]},
    {"compound": "CC(=O)Nc1ccc(O)cc1", "note": "[APAP, acetaminophen]", "values": [
      {"measurement": "Mouse liver injury by serum liver function enzyme tests and histopathology", "setting": "Mouse livers", "value": "appeared uninjured"}
    ]},
    {"compound": "COc1ccc2c(O[C@@H]3C[C@H]4C(=O)N[C@]5(C(=O)O)C[C@H]5/C=C\\CCCCC[C@H](NC(=O)OC5CCCC5)C(=O)N4C3)cc(-c3csc(NC(C)C)n3)nc2c1", "note": "[BILN-2061]", "values": [
      {"measurement": "Response of HCV infection to anti-HCV therapy", "setting": "hepatitis C virus", "value": "responding"}
    ]},
    {"compound": "COc1ccc2[nH]c([S+]([O-])Cc3ncc(C)c(OC)c3C)nc2c1", "note": "(centres unmarked) [OME, omeprazole]", "values": [
      {"measurement": "Human serum albumin from humanized mice over time", "setting": "human liver mimetics", "value": "not affected"}
    ]},
    {"compound": "CO[C@H]1/C=C/O[C@@]2(C)Oc3c(C)c(O)c4c(O)c(c(/C=N/N5CCN(C)CC5)c(O)c4c3C2=O)NC(=O)/C(C)=C\\C=C\\[C@H](C)[C@H](O)[C@@H](C)[C@@H](O)[C@@H](C)[C@H](OC(C)=O)[C@@H]1C", "note": "[RIF, rifampin]", "values": [
      {"measurement": "Mouse liver injury by serum liver function enzyme tests and histopathology", "setting": "Mouse livers", "value": "appeared uninjured"}
    ]},
    {"compound": "COc1cc(NC(C)CCCN)c2ncccc2c1", "note": "(centres unmarked) [primaquine]", "values": [
      {"measurement": "Inhibition of parasite development (BLI quantification)", "setting": "[1]", "value": "greater effect on inhibiting parasite development in Huh7.5 than in HC04"}
    ]},
    {"compound": "RGDS", "values": [
      {"measurement": "Improvement of encapsulated HEP/FIB synthetic and secretory functions", "setting": "[2]", "value": "two- to three-fold"}
    ]}
  ]
}
